The text below walks through data of patent US11357719B2, “Method for obtaining a diglycoside-enriched Armeria maritima extract, and use thereof in cosmetics” (BIOTECHMARINE, priority 2016, dated 2022).

In general, Inhibition refers to the share of the control response that was lost under treatment. A high value points to strong suppression.

The test system of one data set is purified collagenase. As to the kind of experiment: Anti-collagenase activity, EnzCheck gelatinase/collagenase Assay Kit (cell-free, fluorimetry). Format: biochemical, Clostridium Histolyticum. Conditions: for Fluorescence: 2 h incubation at room temperature, blank subtracted; for Inhibition: relative to control group. As for the experimental part: A purified collagenase is used and the degradation of its pro-fluorescent substrate is monitored by fluorimetry.
The anti-collagenase activity is evaluated using a commercially available kit (EnzCheck™ gelatinase/collagenase Assay Kit, Molecular Probes, reference E-12055).
This is a test based on a cell-free biochemical evaluation using a purified collagenase from a […] (Clostridium Histolyticum) and a purified gelatin from porcine skin, purified type I collagen from bovine skin or purified type IV collagen from human placenta. […] The increase in the fluorescence is proportional to the MMP activity. A decrease in this fluorescence is expected in the presence of anti-MMP active agents. The test is validated using a reference anti-MMP inhibitor provided in the kit, 1,10-phenanthroline, tested at 0.01% and 0.001%.
The products are placed on a 96-well plate in the following manner:
The products are left to incubate for two hours at room temperature in darkness, then the fluorescence is determined (Excitation 495 nm; Emission: 515 nm). Each test is repeated three times. For each sample, the values are subtracted from the blank test. The percentage inhibition corresponds to the ratio of the mean of the collagenase activity obtained for each extract to the mean of the collagenase activity of the control group.

The subject of another data set is normal human fibroblasts. As to the kind of experiment: Phototoxicity evaluation based on OECD test no. 432 (in vitro 3T3 NRU phototoxicity test), MTT viability. Format: cell-based. On the procedure:
This evaluation is carried out based on the experimental conditions of test no. 432, entitled “in vitro 3T3 NRU phototoxicity test” from the OECD guidelines for testing chemicals, regarding conditions related to culture kinetics and to the acceptable dosage limit for Chlopromazine (CPZ). This guideline describes a method for evaluating photo-cytotoxicity by the relative reduction in the viability of the cells exposed to the chemical product in the presence or absence of light.
A pool of normal human fibroblasts of Caucasian type is used and amplified for five days in a 75 cm^2 flask in specific culture medium containing 10% FBS*. The cells are then seeded in culture wells of a 96-well plate (4 wells/condition), at 10 000 cells/well, in 200 μl of specific culture medium containing 10% FBS (Fetal Bovine Serum). 24 h after seeding, the cells are treated with the products for the test, prepared in EBSS (Earle's balance salt Solution) for one hour. At the end of this incubation, the cells are exposed (+irr) or not exposed (−irr) to a dose of 1 J/cm^2 of UVA, in the presence of the products being tested. At the end of this exposure, the cell layers are rinsed then brought back into contact with specific culture medium containing 2% of FBS. 24 h after this change, the cell viability is evaluated using the MTT method (colorimetric assay, visualized at 540 nm). The results are expressed as percentage viability relative to the control. The following parameters are deduced therefrom:
EC50: Concentration of active agent inducing 50% toxicity (−irr) or phototoxicity (+irr)
PIF (photo-irradiation factor): EC50(−irr)/EC50(+irr)
2<PIF<5: Probable phototoxicity

Each structure is given as a SMILES string. Several values for one entry are separate records, joined by “and”; a condition that tells them apart may be missing. Identical values can stand only once.

Turning to `c1cnc2c(c1)ccc1cccnc12` [1,10-phenanthroline], the Fluorescence with purified collagenase (product at 0.001%) was 37.13 AU and 24.41 AU; with purified collagenase (product at 0.01%), 0.91 AU and 1.07 AU. For the same compound, the Inhibition with purified collagenase (product at 0.001%) is 66% and 76%; in the data set on purified collagenase (product at 0.01%), 99%.

On to `CN(C)CCCN1c2ccccc2Sc2ccc(Cl)cc21` [CPZ, Chlopromazine], for which the “PIF (photo-irradiation factor): EC50(−irr)/EC50(+irr)” value in the data set on normal human fibroblasts (PIF<2 no phototoxicity, 2<PIF<5 probable phototoxicity, PIF>5 phototoxicity) came out at 89.2. Further, the “EC50(+irr): concentration of active agent inducing 50% phototoxicity” value in the data set with normal human fibroblasts (exposed to 1 J/cm^2 of UVA, MTT viability 24 h after) stood at 0.25. In addition, in the data set with normal human fibroblasts (not exposed to UVA, MTT viability 24 h after), the “EC50(−irr): concentration of active agent inducing 50% toxicity” value was found to be 22.30.
